The test concerns the target T1, YEATS2 YEATS domain (Homo sapiens, UniProt Q9ULM3).
T1 construct: 201-332 containing an N-terminal 10×His-SUMO tag was overexpressed in Escherichia coli BL21 (DE3); 10×His-SUMO (N, cleaved yes); made in house; host or cells: Escherichia coli BL21 (DE3)
T1 sequence (Q9ULM3 201-332 limits assumed): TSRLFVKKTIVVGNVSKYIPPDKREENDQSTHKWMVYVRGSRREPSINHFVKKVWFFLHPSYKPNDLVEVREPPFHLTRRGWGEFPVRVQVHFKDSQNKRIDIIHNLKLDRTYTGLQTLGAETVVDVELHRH
The test can be described thus: competitive photo-cross-linking assay. It is filed as binding. As for the experimental part: The probes in the absence or presence of different concentrations of competitors were incubated with recombinant proteins (5 or 20 ng/µL) in binding buffer (50 mM HEPES, 150 mM NaCl, 2 mM MgCl2, 0.1% Tween-20, 20% glycerol, pH 7.5, with 50 ng/µL BSA) for 10 min at 4° C. Then, the samples were irradiated at 365 nm using UV lamp for 20 min in 96-well on ice.
To the prepared photo-cross-linking samples, we added 100 µM rhodamine-N3 for in-gel fluorescence (10 mM stock in DMSO), followed by 1 mM TCEP (freshly prepared 50 mM stock in H2O) and 100 µM TBTA (10 mM stock in DMSO); finally, the reactions were initiated by the addition of 1 mM CuSO4 (freshly prepared 50 mM stock in H2O). The reactions were incubated for 1 h at room temperature (22 to 25° C.) with regular vortexing. The reactions were quenched by adding 5 volumes of ice-cold acetone and placed at — 20° C. overnight to precipitate proteins.
Samples after protein precipitation were centrifuged at 13,000 × g for 5 min at 4° C. The supernatant was discarded, and the pellet was washed with ice-cooled acetone and air-dried for 10 min. The proteins were resuspended in 1 × LDS sample loading buffer (Invitrogen, Waltham, MA) with 50 mM DTT and heated at 95° C. for 8 min. Samples were then resolved by SDS-PAGE. […]
YEATS domain of YEATS2 is newly identified as histone benzoylation reader. […]

Non-standard residues stand in square brackets, D forms with d. Residues, ends and D or L forms follow the SMILES beside them. *: point of attachment. Benzofuran(2-CO) = O=C(c1cc2ccccc2o1)*; X1 = O=C(c1cc2ccc(Br)cc2o1)*; NMeA = CN[C@@H](C)C(=O)O; Ms = CS(=O)(=O)*

Regarding `C[C@H](NC(=O)[C@H](CO)NC(=O)[C@H](CCCCNC(=O)c1cc2ccccc2o1)NS(C)(=O)=O)C(=O)N1CCC[C@H]1C(N)=O` [MsKSAP] (Ms-K(Benzofuran(2-CO))SAP-NH2), the concentration for half-maximal inhibition (IC50) (Table 2) came out at 600 nM. On to `C[C@@H](C(=O)N1CCC[C@H]1C(N)=O)N(C)C(=O)[C@H](CO)NC(=O)[C@H](CCCCNC(=O)c1cc2ccc(Br)cc2o1)NS(C)(=O)=O` [HC18] (Ms-K(X1)S[NMeA]P-NH2), for which the “inhibitory activity / potency against YEATS2 YEATS (in words)” value is “maintained the inhibitory activity”.

What is called IC50 is the concentration that inhibits the measured activity by half. Read a high IC50 as lower potency.

Source of the values: patent US20230355705A1, “DISCOVERY OF YEATS2 YEATS DOMAIN INHIBITORS AS NOVEL ANTI-CANCER AGENTS” (The University of Hong Kong, priority 2022, published 2023).
